The source made the active and inactive calls. No cut-off for these calls is given here.

This experiment deals with SARS-CoV-2. As to the kind of experiment: Antiviral activity against SARS-CoV-2 pseudotyped with delta spike protein infected in HEK293T cells harbouring hACE2 assessed as decrease in virus-like particle cellular entry at 10 uM preincubated with cells for 3 hrs followed by viral infection and measured after 72 hrs by ONE-Glo-Ex luciferase assay. Type of experiment: functional, organism-based. Conditions: Severe acute respiratory syndrome coronavirus 2, time 75.0 hrs.
`N=C(N)NCCC[C@H](NC(=O)[C@H](Cc1ccccc1)NC(=O)[C@H](CCC(N)=O)NC(=O)OCc1ccccc1)C(=O)c1nccs1`: the outcome was inactive.

`CS(=O)(=O)N[C@@H](CCC(N)=O)C(=O)N[C@@H](Cc1ccccc1)C(=O)N[C@@H](CCCNC(=N)N)C(=O)c1nc2ccccc2s1`: the outcome was inactive.

As to `CCOC(=O)[C@H]1O[C@@H]1C(=O)N[C@@H](CC(C)C)C(=O)NCCC(C)C`, the result was Active.

As to `CN(C)C(=O)COC(=O)Cc1ccc(OC(=O)c2ccc(NC(=N)N)cc2)cc1` [CAMOSTAT], the outcome was inactive.

(Values after ChEMBL document CHEMBL6109142 (J Med Chem, 2025).)
